Assay [1] relates to HIV-1 RT mutant E138K/M184I. In words: single round infection assay, E138K/M184I. The assay is classed as cell-based. As to conditions: E138K/M184I vs WT.
The subject of assay [2] is HIV-1 RT mutant E138K/M184V. In words: single round infection assay, E138K/M184V. The assay is classed as cell-based. The following applies: for IC50: ± SD, n=4.
Assay [3] relates to HIV-1 RT mutant V106A/G190A/F227L. In words: single round infection assay, V106A/G190A/F227L. It is filed as cell-based.
The subject of assay [4] is HIV-1 RT mutant L100I/K103N. In words: single round infection assay, L100I/K103N. The assay is classed as cell-based.
Assay [5] concerns HIV-1 RT mutant K101P/V179I. In words: single round infection assay, K101P/V179I. The assay is classed as cell-based.
For assay [6], the system named is HIV-1 RT mutant K103N/P225H. In words: single round infection assay, K103N/P225H. It is filed as cell-based.
Another assay concerns HIV-1 RT mutant Y181C. On the set-up: method as in PMID 23217210. As to conditions: previous study; cited from earlier work.
The next assay relates to HIV-1 RT mutant D67E. In words: single round infection assay, D67E. The assay is classed as cell-based. As to conditions: D67E vs WT.
A further assay concerns HIV-1 RT mutant G190S. In words: single round infection assay, G190S. The following applies: Human immunodeficiency virus 1. The assay is classed as cell-based.
In the next assay the test system is HIV-1 RT mutant M230L. In words: single round infection assay, M230L. The assay is classed as cell-based. The following applies: for IC50: ± SD, n=4, limit of detection 100 nM.
In the next assay the test system is HIV-1 RT mutant H221Y. More on the design: method as in PMID 23217210. As to conditions: previous study; cited from earlier work.
In the next assay the test system is WT HIV-1. In words: single round infection luciferase assay, WT HIV-1. It is filed as cell-based. As to conditions: Human immunodeficiency virus 1.
Another assay has as its system HIV-1 RT mutant P236L. In words: single round infection assay, P236L. The assay is classed as cell-based. The following applies: Human immunodeficiency virus 1.

One may read the IC50 as the concentration that gives 50% inhibition.

For `Cc1cc(/C=C/C#N)cc(C)c1-n1cnc2cnc(Nc3ccc(C#N)cc3)nc21` [compound 27], the “fold-change of IC50 of the mutant relative to WT” value in assay [1] is recorded as less than 2; in [2] (E138K/M184V vs WT), 3; in [3] (V106A/G190A/F227L vs WT), 4; in assay [4] (L100I/K103N vs WT), 69; in [5] (K101P/V179I vs WT), 29; in [6] (K103N/P225H vs WT) it was 4. Also, the “fold-change of IC50 of the mutant relative to WT” value in the assay on HIV-1 RT mutant D67E was 2; in the assay with HIV-1 RT mutant M230L (M230L vs WT), 7. Also, the IC50 is 1.8 ± 0.8 nM in assay [2] (E138K/M184V); less than 2.5 nM in assay [2] (Human immunodeficiency virus 1, E138K/M184V); 2.2 ± 1.2 nM in assay [3] (Human immunodeficiency virus 1); 39.8 nM in [4] (Human immunodeficiency virus 1, L100I/K103N, ± SD, n=4, limit of detection 100 nM); 16.6 nM in assay [5] (Human immunodeficiency virus 1); 2.1 ± 0.93 nM in assay [6] (Human immunodeficiency virus 1). The half-maximal inhibitory concentration (IC50) was less than 7 nM with HIV-1 RT mutant Y181C; 0.1 ± 0.01 nM in the assay on HIV-1 RT mutant G190S; less than 6.1 nM in the assay with HIV-1 RT mutant M230L (Human immunodeficiency virus 1, M230L); 4.2 ± 0.5 nM with HIV-1 RT mutant M230L (M230L); less than 7 nM with HIV-1 RT mutant H221Y; 0.58 ± 0.24 nM in the assay with WT HIV-1. Besides, it took 0.2 ± 0.04 nM to reach half-maximal inhibition in the assay with HIV-1 RT mutant P236L (IC50).
